The values below come from article PMC8709206, “Study on Purification and Characterization of Polyphenol Oxidase from Acetes chinensis” (Molecules, 2021).

The term Km denotes the substrate concentration at which the rate is half of its maximum.

This assay concerns T1, Acetes chinensis PPO (polyphenol oxidase).
T1 construct: native enzyme purified from fresh shrimp (ammonium sulphate, DEAE, Phenyl-Sepharose HP); single SDS-PAGE band about 75 kDa
The assay can be described thus: absorbance at […] nm, Lineweaver-Burk. The assay is classed as biochemical. Particulars: 0.05 mol/L phosphate buffer pH 7.2, 40 °C, 40 min; Figure 2 caption names pyrocatechol, text names L-Dopa.

For the compound `N[C@@H](Cc1ccc(O)c(O)c1)C(=O)O` [L-dopa], the Km was 846 µM.
